According to ChEMBL document CHEMBL2074142, “Interaction of anionic cephalosporins with the intestinal and renal peptide transporters PEPT 1 and PEPT 2” (Biochim Biophys Acta, 1997):

Assays:
Type in all cases: functional, cell-based
[1] = molecular target: T1, Solute carrier family 15 member 1 (Homo sapiens, UniProt P46059); experiment: TP_TRANSPORTER: inhibition of Gly-Sar uptake (Gly-Sar: 5 uM) in Caco-2 cells
T1 sequence (P46059 whole entry): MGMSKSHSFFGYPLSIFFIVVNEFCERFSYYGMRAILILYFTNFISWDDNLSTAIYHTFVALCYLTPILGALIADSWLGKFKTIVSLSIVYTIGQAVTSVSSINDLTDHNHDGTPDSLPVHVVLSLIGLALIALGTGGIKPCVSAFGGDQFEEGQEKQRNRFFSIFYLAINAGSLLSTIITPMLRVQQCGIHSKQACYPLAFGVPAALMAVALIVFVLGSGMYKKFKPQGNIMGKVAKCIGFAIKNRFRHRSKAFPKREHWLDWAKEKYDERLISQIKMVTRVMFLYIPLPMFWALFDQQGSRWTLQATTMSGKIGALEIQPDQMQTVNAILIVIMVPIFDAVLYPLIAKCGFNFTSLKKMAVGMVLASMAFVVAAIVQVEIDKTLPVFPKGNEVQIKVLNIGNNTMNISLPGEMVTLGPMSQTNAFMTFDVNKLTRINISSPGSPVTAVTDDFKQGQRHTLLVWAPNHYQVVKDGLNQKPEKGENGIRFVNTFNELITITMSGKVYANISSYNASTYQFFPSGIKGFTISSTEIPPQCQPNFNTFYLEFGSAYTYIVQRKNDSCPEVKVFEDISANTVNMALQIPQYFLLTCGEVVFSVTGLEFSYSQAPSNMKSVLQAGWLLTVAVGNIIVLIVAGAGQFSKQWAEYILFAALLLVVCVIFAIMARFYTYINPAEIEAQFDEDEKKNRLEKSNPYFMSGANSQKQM

[2] = molecular target: T2, Solute carrier family 15 member 2 (Homo sapiens) (UniProt Q16348); experiment: TP_TRANSPORTER: inhibition of Gly-Sar uptake (Gly-Sar: 50 uM, Cefixime: 10000 uM) in PEPT2-expressing HeLa cells
T2 sequence (whole entry): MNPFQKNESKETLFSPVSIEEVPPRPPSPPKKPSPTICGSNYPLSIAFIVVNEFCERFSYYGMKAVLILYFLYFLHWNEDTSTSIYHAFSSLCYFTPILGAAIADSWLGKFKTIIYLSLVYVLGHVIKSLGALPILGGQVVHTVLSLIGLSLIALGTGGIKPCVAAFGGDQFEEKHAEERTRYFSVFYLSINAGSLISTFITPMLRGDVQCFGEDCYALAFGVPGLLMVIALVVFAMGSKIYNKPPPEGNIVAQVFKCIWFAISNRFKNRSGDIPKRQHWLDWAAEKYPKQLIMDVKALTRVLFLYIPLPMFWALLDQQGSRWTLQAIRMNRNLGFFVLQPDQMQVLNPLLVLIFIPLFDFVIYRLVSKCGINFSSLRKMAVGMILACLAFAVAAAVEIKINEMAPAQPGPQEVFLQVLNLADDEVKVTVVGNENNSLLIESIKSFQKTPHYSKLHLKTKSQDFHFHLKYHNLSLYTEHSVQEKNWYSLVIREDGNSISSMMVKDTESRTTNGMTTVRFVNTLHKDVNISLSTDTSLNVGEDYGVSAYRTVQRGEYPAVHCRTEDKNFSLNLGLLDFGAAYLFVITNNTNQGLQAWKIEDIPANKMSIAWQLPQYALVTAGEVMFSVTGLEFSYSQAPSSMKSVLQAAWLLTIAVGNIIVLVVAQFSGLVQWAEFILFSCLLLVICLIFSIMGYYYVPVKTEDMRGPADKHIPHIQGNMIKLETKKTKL

[3] = molecular target: T3, Solute carrier family 15 member 1 (Homo sapiens) (UniProt P46059); experiment: TP_TRANSPORTER: inhibition of Gly-Sar uptake (Gly-Sar: 20 uM, Cefixime: 10000 uM) in PEPT1-expressing HeLa cells
T3 sequence (whole entry): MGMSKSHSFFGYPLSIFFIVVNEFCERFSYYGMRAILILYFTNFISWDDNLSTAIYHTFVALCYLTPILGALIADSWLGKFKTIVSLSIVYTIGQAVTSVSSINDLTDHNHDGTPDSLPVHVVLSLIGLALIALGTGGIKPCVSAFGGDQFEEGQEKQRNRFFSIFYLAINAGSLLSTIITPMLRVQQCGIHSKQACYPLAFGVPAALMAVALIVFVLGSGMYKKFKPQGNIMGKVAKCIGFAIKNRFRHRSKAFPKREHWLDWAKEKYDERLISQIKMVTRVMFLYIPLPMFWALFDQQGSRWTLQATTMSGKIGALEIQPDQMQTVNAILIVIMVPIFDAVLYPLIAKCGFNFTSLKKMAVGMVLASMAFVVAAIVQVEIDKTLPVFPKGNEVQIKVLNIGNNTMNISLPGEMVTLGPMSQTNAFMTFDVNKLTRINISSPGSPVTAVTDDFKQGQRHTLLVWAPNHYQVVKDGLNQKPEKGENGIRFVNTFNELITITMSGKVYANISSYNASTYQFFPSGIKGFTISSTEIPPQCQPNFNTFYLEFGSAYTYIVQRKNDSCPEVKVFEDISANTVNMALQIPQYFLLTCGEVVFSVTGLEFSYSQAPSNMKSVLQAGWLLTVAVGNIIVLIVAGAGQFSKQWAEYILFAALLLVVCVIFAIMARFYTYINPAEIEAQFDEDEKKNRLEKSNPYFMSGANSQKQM

[4] = molecular target: T4, Solute carrier family 15 member 2 (Rattus norvegicus, UniProt Q63424); experiment: TP_TRANSPORTER: inhibition of Gly-Sar uptake (Gly-Sar: 5 uM) in SKPT cells
T4 sequence (Q63424 whole entry): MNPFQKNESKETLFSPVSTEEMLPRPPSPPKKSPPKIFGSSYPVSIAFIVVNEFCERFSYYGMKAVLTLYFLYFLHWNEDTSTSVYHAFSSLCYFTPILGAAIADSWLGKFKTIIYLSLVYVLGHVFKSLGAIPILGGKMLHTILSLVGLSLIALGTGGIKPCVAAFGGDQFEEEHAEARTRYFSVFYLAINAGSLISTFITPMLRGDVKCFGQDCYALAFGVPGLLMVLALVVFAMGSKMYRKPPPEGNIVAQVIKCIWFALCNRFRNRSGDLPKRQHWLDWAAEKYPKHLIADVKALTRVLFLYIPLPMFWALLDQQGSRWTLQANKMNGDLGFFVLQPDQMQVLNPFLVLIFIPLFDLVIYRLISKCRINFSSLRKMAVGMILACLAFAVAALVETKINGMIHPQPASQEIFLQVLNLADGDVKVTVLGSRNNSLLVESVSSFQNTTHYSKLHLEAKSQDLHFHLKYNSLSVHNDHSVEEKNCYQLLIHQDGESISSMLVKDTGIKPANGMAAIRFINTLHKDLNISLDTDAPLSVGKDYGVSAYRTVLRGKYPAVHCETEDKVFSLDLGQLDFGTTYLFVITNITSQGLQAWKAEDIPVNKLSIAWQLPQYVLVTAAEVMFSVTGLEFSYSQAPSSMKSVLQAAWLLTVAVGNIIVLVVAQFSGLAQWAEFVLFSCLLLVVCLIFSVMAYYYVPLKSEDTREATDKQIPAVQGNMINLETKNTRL

[5] = molecular target: T2, Solute carrier family 15 member 2 (Homo sapiens); experiment: TP_TRANSPORTER: inhibition of Gly-Sar uptake (Gly-Sar: 50 uM, Cefdinir: 10000 uM) in PEPT2-expressing HeLa cells
[6] = molecular target: T3, Solute carrier family 15 member 1 (Homo sapiens); experiment: TP_TRANSPORTER: inhibition of Gly-Sar uptake (Gly-Sar: 20 uM, Cefdinir: 10000 uM) in PEPT1-expressing HeLa cells
[7] = molecular target: T4, Solute carrier family 15 member 2; experiment: TP_TRANSPORTER: inhibition of Gly-Sar uptake in SKPT cells
[8] = molecular target: T5, Solute carrier family 15 member 2 (Homo sapiens, UniProt Q16348); experiment: TP_TRANSPORTER: inhibition of Gly-Sar uptake in PEPT2-expressing HeLa cells
T5 sequence (Q16348 whole entry): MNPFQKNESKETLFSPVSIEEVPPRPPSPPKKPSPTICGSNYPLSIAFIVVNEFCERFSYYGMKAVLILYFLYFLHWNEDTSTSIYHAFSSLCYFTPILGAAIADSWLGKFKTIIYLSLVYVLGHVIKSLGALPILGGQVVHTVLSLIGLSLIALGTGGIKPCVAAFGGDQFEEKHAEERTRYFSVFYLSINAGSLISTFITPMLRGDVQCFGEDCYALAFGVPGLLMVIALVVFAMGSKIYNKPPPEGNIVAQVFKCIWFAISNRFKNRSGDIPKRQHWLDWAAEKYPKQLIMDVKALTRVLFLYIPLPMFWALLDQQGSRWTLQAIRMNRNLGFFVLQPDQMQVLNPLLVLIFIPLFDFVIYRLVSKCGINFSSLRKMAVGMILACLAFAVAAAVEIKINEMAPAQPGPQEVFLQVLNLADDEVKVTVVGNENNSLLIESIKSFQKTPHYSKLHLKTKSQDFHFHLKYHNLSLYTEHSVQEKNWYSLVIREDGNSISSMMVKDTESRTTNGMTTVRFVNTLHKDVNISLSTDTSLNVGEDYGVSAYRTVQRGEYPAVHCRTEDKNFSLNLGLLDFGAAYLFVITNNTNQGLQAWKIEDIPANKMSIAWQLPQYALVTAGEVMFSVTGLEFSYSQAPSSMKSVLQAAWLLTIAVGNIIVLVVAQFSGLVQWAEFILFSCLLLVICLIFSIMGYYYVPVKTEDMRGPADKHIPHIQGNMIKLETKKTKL

[9] = molecular target: T1, Solute carrier family 15 member 1; experiment: TP_TRANSPORTER: inhibition of Gly-Sar uptake in PEPT1-expressing HeLa cells
[10] = molecular target: T1, Solute carrier family 15 member 1; experiment: TP_TRANSPORTER: inhibition of Gly-Sar uptake in Caco-2 cells
[11] = substrate: CN(CC(=O)O)C(=O)CN; experiment: TP_TRANSPORTER: uptake in SKPT cells

C=CC1=C(C(=O)O)N2C(=O)[C@@H](NC(=O)/C(=N\OCC(=O)O)c3csc(N)n3)[C@H]2SC1 [CEFIXIME]
IC50 [1]: 10000 µM
Activity [2]: 0.54
inhibition [3]: 44%
IC50 [4]: 3200 µM

C=CC1=C(C(=O)O)N2C(=O)[C@@H](NC(=O)/C(=N\O)c3csc(N)n3)[C@H]2SC1 [CEFDINIR]
Activity [5]: 0.48
inhibition [6]: 31%
IC50 [4]: 10000 µM

Nc1nc(/C(=C/CC(=O)O)C(=O)N[C@@H]2C(=O)N3C(C(=O)O)=CCS[C@H]23)cs1 [CEFTIBUTEN]
Ki [7]: 380 µM
Ki [8]: 90 µM
Ki [9]: 710 µM
Ki [10]: 870 µM

B1: Solute carrier family 15 member 2 (Rattus norvegicus), Q63424 (protein)
chain: MNPFQKNESKETLFSPVSTEEMLPRPPSPPKKSPPKIFGSSYPVSIAFIVVNEFCERFSYYGMKAVLTLYFLYFLHWNEDTSTSVYHAFSSLCYFTPILGAAIADSWLGKFKTIIYLSLVYVLGHVFKSLGAIPILGGKMLHTILSLVGLSLIALGTGGIKPCVAAFGGDQFEEEHAEARTRYFSVFYLAINAGSLISTFITPMLRGDVKCFGQDCYALAFGVPGLLMVLALVVFAMGSKMYRKPPPEGNIVAQVIKCIWFALCNRFRNRSGDLPKRQHWLDWAAEKYPKHLIADVKALTRVLFLYIPLPMFWALLDQQGSRWTLQANKMNGDLGFFVLQPDQMQVLNPFLVLIFIPLFDLVIYRLISKCRINFSSLRKMAVGMILACLAFAVAALVETKINGMIHPQPASQEIFLQVLNLADGDVKVTVLGSRNNSLLVESVSSFQNTTHYSKLHLEAKSQDLHFHLKYNSLSVHNDHSVEEKNCYQLLIHQDGESISSMLVKDTGIKPANGMAAIRFINTLHKDLNISLDTDAPLSVGKDYGVSAYRTVLRGKYPAVHCETEDKVFSLDLGQLDFGTTYLFVITNITSQGLQAWKAEDIPVNKLSIAWQLPQYVLVTAAEVMFSVTGLEFSYSQAPSSMKSVLQAAWLLTVAVGNIIVLVVAQFSGLAQWAEFVLFSCLLLVVCLIFSVMAYYYVPLKSEDTREATDKQIPAVQGNMINLETKNTRL
Km [11]: 74.5 µM
